Results published in patent publication US20120156771A1, “FUNCTIONAL DISRUPTION OF AN IMMUNOGLOBULIN GENE IN AN AVIAN EMBRYONIC STEM CELL” (Origen Therapeutics, Inc., priority 2002, published 2012).

Test system: chicken embryonic stem cells
Assay: Titration kill curve: morphology of cES cells under puromycin or neomycin selection
Format: cell-based
Parameters: key to Morphology of cES cells: ES: ES cells are present.; diff: ES cells are differentiated.; gone: no morphologically recognizable cells are present
Experimental: In a preferred embodiment, the concentration of puromycin required for selecting transfected cells is calculated as a titration kill curve. Titration kill curves for chicken embryonic stem cells are established by exposing cells in culture to puromycin concentrations varying from 0.0 to 1.0 μg/ml for 10 days (Table 7) and neomycin concentrations varying from 0.0 to 200 μg/ml (Table 8). The medium is changed every 2 days and fresh puromycin or neomycin is added. […] Puromycin concentrations of 0.3-1.0 μg/ml are used for selection of the transfected cultures. Neomycin concentrations over 40 μg/ml eliminated all cES cells within 7 days (Table 8).

`COc1ccc(C[C@H](N)C(=O)N[C@H]2[C@@H](O)[C@H](n3cnc4c(N(C)C)ncnc43)O[C@@H]2CO)cc1` [puromycin] was tested, and the “Presence of ES cells in wells” value (0.3 μg/ml puromycin, after 3 changes of medium with fresh puromycin over a six day period) was “absent from all wells”, the “Morphology of cES cells” value (puromycin 0.1 μg/ml, day 1 under selection) was “ES” and the “Morphology of cES cells” value (puromycin 0.1 μg/ml, day 2 under selection) was “ES”. For the same molecule, the “Morphology of cES cells” value (puromycin 0.1 μg/ml, day 3 under selection) was “ES”, the “Morphology of cES cells” value (puromycin 0.1 μg/ml, day 4 under selection) was “ES” and the “Morphology of cES cells” value (puromycin 0.1 μg/ml, day 5 under selection) was “ES”. For the same molecule, the “Morphology of cES cells” value (puromycin 0.1 μg/ml, day 6 under selection) was “ES”, the “Morphology of cES cells” value (puromycin 0.1 μg/ml, day 7 under selection) was “ES” and the “Morphology of cES cells” value (puromycin 0.1 μg/ml, day 8 under selection) was “ES”. The “Morphology of cES cells” value (puromycin 0.1 μg/ml, day 9 under selection) was “ES”, the “Morphology of cES cells” value (puromycin 0.1 μg/ml, day 10 under selection) was “ES” and the “Morphology of cES cells” value (puromycin 0.2 μg/ml, day 1 under selection) was “ES”. For the same molecule, the “Morphology of cES cells” value (puromycin 0.2 μg/ml, day 2 under selection) was “ES”, the “Morphology of cES cells” value (puromycin 0.2 μg/ml, day 3 under selection) was “ES” and the “Morphology of cES cells” value (puromycin 0.2 μg/ml, day 4 under selection) was “ES”. For the same molecule, the “Morphology of cES cells” value (puromycin 0.2 μg/ml, day 5 under selection) was “ES”, the “Morphology of cES cells” value (puromycin 0.2 μg/ml, day 6 under selection) was “ES” and the “Morphology of cES cells” value (puromycin 0.2 μg/ml, day 7 under selection) was “ES”. The “Morphology of cES cells” value (puromycin 0.2 μg/ml, day 8 under selection) was “ES”, the “Morphology of cES cells” value (puromycin 0.2 μg/ml, day 9 under selection) was “ES” and the “Morphology of cES cells” value (puromycin 0.2 μg/ml, day 10 under selection) was “ES”. For the same molecule, the “Morphology of cES cells” value (puromycin 0.25 μg/ml, day 1 under selection) was “ES”, the “Morphology of cES cells” value (puromycin 0.25 μg/ml, day 2 under selection) was “ES” and the “Morphology of cES cells” value (puromycin 0.25 μg/ml, day 3 under selection) was “ES”. For the same molecule, the “Morphology of cES cells” value (puromycin 0.25 μg/ml, day 4 under selection) was “ES”, the “Morphology of cES cells” value (puromycin 0.25 μg/ml, day 5 under selection) was “ES” and the “Morphology of cES cells” value (puromycin 0.25 μg/ml, day 6 under selection) was “diff”. For the same molecule, the “Morphology of cES cells” value (puromycin 0.25 μg/ml, day 7 under selection) was “diff”, the “Morphology of cES cells” value (puromycin 0.3 μg/ml, day 1 under selection) was “ES” and the “Morphology of cES cells” value (puromycin 0.3 μg/ml, day 2 under selection) was “ES”. For the same molecule, the “Morphology of cES cells” value (puromycin 0.3 μg/ml, day 3 under selection) was “diff”, the “Morphology of cES cells” value (puromycin 0.3 μg/ml, day 6 under selection) was “gone” and the “Morphology of cES cells” value (puromycin 0.3 μg/ml, day 7 under selection) was “gone”. For the same molecule, the “Morphology of cES cells” value (puromycin 0.3 μg/ml, day 8 under selection) was “gone”, the “Morphology of cES cells” value (puromycin 0.3 μg/ml, day 9 under selection) was “gone” and the “Morphology of cES cells” value (puromycin 0.3 μg/ml, day 10 under selection) was “gone”. The “Morphology of cES cells” value (puromycin 0.4 μg/ml, day 1 under selection) was “ES”, the “Morphology of cES cells” value (puromycin 0.4 μg/ml, day 2 under selection) was “diff” and the “Morphology of cES cells” value (puromycin 0.4 μg/ml, day 3 under selection) was “gone”. The “Morphology of cES cells” value (puromycin 0.4 μg/ml, day 4 under selection) was “gone”, the “Morphology of cES cells” value (puromycin 0.4 μg/ml, day 5 under selection) was “gone” and the “Morphology of cES cells” value (puromycin 0.4 μg/ml, day 6 under selection) was “gone”. For the same molecule, the “Morphology of cES cells” value (puromycin 0.4 μg/ml, day 7 under selection) was “gone”, the “Morphology of cES cells” value (puromycin 0.4 μg/ml, day 8 under selection) was “gone” and the “Morphology of cES cells” value (puromycin 0.4 μg/ml, day 9 under selection) was “gone”. For the same molecule, the “Morphology of cES cells” value (puromycin 0.4 μg/ml, day 10 under selection) was “gone”, the “Morphology of cES cells” value (puromycin 0.5 μg/ml, day 1 under selection) was “diff” and the “Morphology of cES cells” value (puromycin 0.5 μg/ml, day 2 under selection) was “gone”. For the same molecule, the “Morphology of cES cells” value (puromycin 0.5 μg/ml, day 3 under selection) was “gone”, the “Morphology of cES cells” value (puromycin 0.5 μg/ml, day 4 under selection) was “gone” and the “Morphology of cES cells” value (puromycin 0.5 μg/ml, day 5 under selection) was “gone”. For the same molecule, the “Morphology of cES cells” value (puromycin 0.5 μg/ml, day 6 under selection) was “gone”, the “Morphology of cES cells” value (puromycin 0.5 μg/ml, day 7 under selection) was “gone” and the “Morphology of cES cells” value (puromycin 0.5 μg/ml, day 8 under selection) was “gone”. The “Morphology of cES cells” value (puromycin 0.5 μg/ml, day 9 under selection) was “gone”, the “Morphology of cES cells” value (puromycin 0.5 μg/ml, day 10 under selection) was “gone” and the “Morphology of cES cells” value (puromycin 0.6 μg/ml, day 1 under selection) was “diff”. The “Morphology of cES cells” value (puromycin 0.6 μg/ml, day 2 under selection) was “gone”, the “Morphology of cES cells” value (puromycin 0.6 μg/ml, day 3 under selection) was “gone” and the “Morphology of cES cells” value (puromycin 0.6 μg/ml, day 4 under selection) was “gone”. For the same molecule, the “Morphology of cES cells” value (puromycin 0.6 μg/ml, day 5 under selection) was “gone”, the “Morphology of cES cells” value (puromycin 0.6 μg/ml, day 6 under selection) was “gone” and the “Morphology of cES cells” value (puromycin 0.6 μg/ml, day 7 under selection) was “gone”. The “Morphology of cES cells” value (puromycin 0.6 μg/ml, day 8 under selection) was “gone”, the “Morphology of cES cells” value (puromycin 0.6 μg/ml, day 9 under selection) was “gone” and the “Morphology of cES cells” value (puromycin 0.6 μg/ml, day 10 under selection) was “gone”. The “Morphology of cES cells” value (puromycin 0.7 μg/ml, day 1 under selection) was “diff”, the “Morphology of cES cells” value (puromycin 0.7 μg/ml, day 2 under selection) was “gone” and the “Morphology of cES cells” value (puromycin 0.7 μg/ml, day 3 under selection) was “gone”. The “Morphology of cES cells” value (puromycin 0.7 μg/ml, day 4 under selection) was “gone”, the “Morphology of cES cells” value (puromycin 0.7 μg/ml, day 5 under selection) was “gone” and the “Morphology of cES cells” value (puromycin 0.7 μg/ml, day 6 under selection) was “gone”. The “Morphology of cES cells” value (puromycin 0.7 μg/ml, day 7 under selection) was “gone”, the “Morphology of cES cells” value (puromycin 0.7 μg/ml, day 8 under selection) was “gone” and the “Morphology of cES cells” value (puromycin 0.7 μg/ml, day 9 under selection) was “gone”. For the same molecule, the “Morphology of cES cells” value (puromycin 0.7 μg/ml, day 10 under selection) was “gone”, the “Morphology of cES cells” value (puromycin 0.8 μg/ml, day 1 under selection) was “gone” and the “Morphology of cES cells” value (puromycin 0.8 μg/ml, day 2 under selection) was “gone”. The “Morphology of cES cells” value (puromycin 0.8 μg/ml, day 3 under selection) was “gone”, the “Morphology of cES cells” value (puromycin 0.8 μg/ml, day 4 under selection) was “gone” and the “Morphology of cES cells” value (puromycin 0.8 μg/ml, day 5 under selection) was “gone”. The “Morphology of cES cells” value (puromycin 0.8 μg/ml, day 6 under selection) was “gone”, the “Morphology of cES cells” value (puromycin 0.8 μg/ml, day 7 under selection) was “gone” and the “Morphology of cES cells” value (puromycin 0.8 μg/ml, day 8 under selection) was “gone”. For the same molecule, the “Morphology of cES cells” value (puromycin 0.8 μg/ml, day 9 under selection) was “gone” and the “Morphology of cES cells” value (puromycin 0.8 μg/ml, day 10 under selection) was “gone”.
